The source of these data is patent publication US9486434B2, “Method for delivery and use of isothiocyanates for prophylaxis and/or therapy of bladder cancer” (Health Research Inc., priority 2010, dated 2016).

For series [1] the following is noted: female, F344, rat, in vivo. How it is done:
FIG. 7. Pharmacokinetics of AITC in F344 rats. A & B. Five groups of 4-6 female rats were administered a single oral dose of AITC at 10 or 300 micromols/kg and then kept in metabolism cages for urine collection (1 rat/cage) for 1.5, 3, 6, 12 and 24 h. At the end of each time period, blood was drawn from one group of rats, from which plasma was prepared. C. Rats bearing orthotopic bladder tumors, 3 weeks after AY-27 cell inoculation, were administered a single oral dose of AITC at 300 micromols/kg. Orthotopic tumors were removed from the rats at 0 h (T1), 1.5 h (T2), and 6 h (T3) after AITC dosing. Concentrations of AITC equivalent in plasma, urine and tumor tissue homogenates were determined by the cyclocondensation assay developed in our lab. Each value is a mean±SE.
Rats were administered a single oral dose of AITC at 10 or 300 micromols/kg, and urine and blood were collected at several time intervals up to 24 h. Cyclocondensation assay was used for measurement of AITC equivalent in the samples [12]. Oral administration of AITC led to dose-dependent increase in the levels of AITC equivalent in both plasma and urine (FIGS. 7A & 7B). […]
(§1) AITC and NAC-AITC contents in the plasma and urine were determined using the high-performance liquid chromatography (HPLC)-based cyclocondensation assay, and are expressed as AITC equivalent or NAC-AITC equivalent. […]

The next series can be described thus: 24-h urinary recovery. The conditions noted are these: female, F344, rat, urine, po, 300 μmol/kg, single oral dose 300 μmol/kg. The format is in vivo. How it is done:
Measurement of pharmacokinetic profiles of AITC and NAC-AITC. The experiment was carried out in female F344 rats since these animals were used in the rat bladder cancer model described above. Groups of three to five rats (8-9 weeks of age) were given a single oral dose of AITC, NAC-AITC or vehicles. AITC was administered in 0.5 ml of soy oil per rat, whereas NACAITC was dissolved in DMSO and diluted with water and administered in 0.2 ml volume (5% DMSO) per rat. The rats were immediately transferred to metabolism cages (one rat per cage), with free access to food and water, for urine collection over four consecutive periods of 0-1.5, 1.5-3, 3-6 and 6-24 h. […]
as §1
To specifically measure urinary levels of NAC-AITC, groups of five rats were dosed orally with either AITC or NAC-AITC at 300 μmol/kg and immediately moved to metabolism cages (one rat per cage) for 24 h urine collection. […] The compounds were monitored at both 230 nm (AITC) and 254 nm (its metabolites). […] The fraction corresponding to NAC-AITC was collected and quantified by the cyclocondensation assay; its identity was confirmed by infusion electrospray ionization mass spectrometry.

Like-named read-outs stand apart in the source and are kept apart here.

In the case of `C=CCN=C=S` [AITC, allyl isothiocyanate], in series [1], the “average 24-h urinary concentration as % of peak urinary concentration” value is 11.6-45.2% and the “average 24-h urinary concentration relative to plasma concentration at 24 h” value is 4,911-14,501 fold higher.
As to `C=CCNC(=S)SC[C@H](NC(C)=O)C(=O)O` [NAC-AITC, N-acetyl-S—(N-allylthiocarbamoyl)cysteine], the dose excreted in “24-h urinary recovery” (HPLC fraction, read-out: 24-h urinary recovery, Recovered as NAC-AITC, % of adminstered dose) was determined as 47.3 ± 1.8%; in the series “24-h urinary recovery” (read-out: 24-h urinary recovery, Recovered as NAC-AITC, % of total recovery), 83.3%.
